This is an account of results in EP2257297B1, “COMPOUNDS FOR USE IN THE TREATMENT OF ACNE, SEBORRHOEA AND SEBHORROEIC DERMATITIS, OR FOR REDUCING SEBUM SECRETION” (priority 2008, dated 2009).

The target of this test is T1, human MC5R (Homo sapiens, UniProt P33032).
T1 construct: purchased Perkin Elmer RBXMC5M400UA
T1 sequence (P33032 whole entry): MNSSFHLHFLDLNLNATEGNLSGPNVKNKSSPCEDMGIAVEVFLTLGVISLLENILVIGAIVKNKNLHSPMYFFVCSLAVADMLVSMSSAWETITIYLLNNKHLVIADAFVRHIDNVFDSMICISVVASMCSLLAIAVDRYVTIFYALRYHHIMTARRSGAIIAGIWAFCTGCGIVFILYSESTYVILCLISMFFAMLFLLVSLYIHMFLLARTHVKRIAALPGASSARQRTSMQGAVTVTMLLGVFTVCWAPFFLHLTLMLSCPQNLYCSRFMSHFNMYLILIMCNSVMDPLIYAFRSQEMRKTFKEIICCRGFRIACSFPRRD
The test can be described thus: Human MC5R radioligand binding assay ([125I] NDP-MSH displacement, hMC5R membranes). To be noted: hMC5R assay as in Example 102; compounds tested as trifluoroacetate or hydrochloride salts, or as free base. How it is done:
After incubation for 10 mins the phosphate buffer containing the iodine was added to NDP-MSH (10 ul at 1 mg/mL) in a separate eppendorf tube. This was incubated for a further 10 mins.
Resuspended membranes were kept on ice until they were added to the wells of the plate.
Assays were performed in 96 well polypropylene plates. […] This was incubated for 1 hr at 37 °C. Non-specific binding was determined with […] NDP-MSH. Plates were filtered using a Tomtec cell harvester with GF/A filters (Wallac) (presoaked in 0.6% polyethylenimine) and washed three times with 1.0 mL ice-cold wash buffer (the above incubation buffer without 1,10-phenanthroline and Complete™ protease inhibitor tablet). The filters were dried in a 37 °C oven, placed in a sample bag and 5 mL Betaplatescint (Wallac) was added. Prepared filters were counted in cassettes in a Microbeta Trilux (Wallac) for 1 min. […] Data analysis was performed using GraphPad Prism 4, employing competition binding with a single site model and a fixed Hill coefficient. The following equation was used: Y = Bottom + (Top-Bottom)/1/10^(X-logEC50), where X = log(concentration) and Y = binding to fit the data.
As usually defined, the IC50 is the concentration at which inhibition is half-maximal. With `CN1[C@H](CNC(=O)c2ccc3cc(Br)ccc3c2)CCN(CC(c2ccccc2)c2ccccc2)C(=O)[C@@H]1CCCN` [Compound 62, N-(((3S,5S)-3-(3-aminopropyl)-1-(2,2-diphenylethyl)-4-methyl-2-oxo-1,4-diazepan-5-yl)methyl)-6-bromo-2-naphthamide], the IC50 is less than 1000 nM. Next, `NCCC[C@@H]1N[C@H](CNC(=O)c2ccc3ccccc3c2)CCN(CC(c2ccccc2)c2ccccc2)C1=O` [Compound 63, N-(((3S,5S)-3-(3-aminopropyl)-1-(2,2-diphenylethyl)-2-oxo-1,4-diazepan-5-yl)methyl)-2-naphthamide]: less than 1000 nM. Next, `CC(C)NCCC[C@@H]1N[C@H](CNC(=O)c2ccc3ccccc3c2)CCN(CC(c2ccccc2)c2ccccc2)C1=O` [Compound 65, N-(((3S,5S)-1-(2,2-diphenylethyl)-3-(3-(isopropylamino)propyl)-2-oxo-1,4-diazepan-5-yl)methyl)-2-naphthamide]: less than 100 nM; `CNC(=N)NCCC[C@@H]1N[C@H](CNC(=O)c2ccc3ccccc3c2)CCN(CC(c2ccccc2)c2ccccc2)C1=O` [Compound 67, N-(((3S,5S)-1-(2,2-diphenylethyl)-3-(3-(3-methylguanidino)propyl)-2-oxo-1,4-diazepan-5-yl)methyl)-2-naphthamide]: less than 10 nM.

Turning to `CNCCC[C@@H]1N[C@H](CNC(=O)c2ccc3ccccc3c2)CCN(CC(c2ccccc2)c2ccccc2)C1=O` [Compound 71, N-(((3S,5S)-1-(2,2-diphenylethyl)-3-(3-(methylamino)propyl)-2-oxo-1,4-diazepan-5-yl)methyl)-2-naphthamide], the IC50 is less than 1000 nM. For `N=C(N)NCCC[C@@H]1N[C@H](CNC(=O)Cc2ccc3ccccc3c2)CCN(CC(c2ccccc2)c2ccccc2)C1=O` [Compound 110, N-(((3S,5S)-1-(2,2-diphenylethyl)-3-(3-guanidinopropyl)-2-oxo-1,4-diazepan-5-yl)methyl)-2-(naphthalen-2-yl)acetamide] the value was less than 1000 nM; for `N=C(N)NCCC[C@@H]1N[C@H](CNC(=O)C2CCc3ccccc3C2)CCN(CC(c2ccccc2)c2ccccc2)C1=O` (stereo partly drawn) [Compound 111, N-(((3S,5S)-1-(2,2-diphenylethyl)-3-(3-guanidinopropyl)-2-oxo-1,4-diazepan-5-yl)methyl)-1,2,3,4-tetrahydronaphthalene-2-carboxamide], less than 100 nM. For `N=C(N)NCCC[C@@H]1N[C@H](CNC(=O)c2cnc3ccccc3c2)CCN(CC(c2ccccc2)c2ccccc2)C1=O` [Compound 112, N-(((3S,5S)-1-(2,2-diphenylethyl)-3-(3-guanidinopropyl)-2-oxo-1,4-diazepan-5-yl)methyl)quinoline-3-carboxamide] the value was less than 100 nM. Turning to `N=C(N)NCCC[C@@H]1N[C@H](CNC(=O)c2cnc3ccccc3n2)CCN(CC(c2ccccc2)c2ccccc2)C1=O` [Compound 113, N-(((3S,5S)-1-(2,2-diphenylethyl)-3-(3-guanidinopropyl)-2-oxo-1,4-diazepan-5-yl)methyl)quinoxaline-2-carboxamide], the IC50 was less than 1000 nM.

As to `N=C(N)NCCC[C@@H]1N[C@H](CNC(=O)c2cc3ccccc3cn2)CCN(CC(c2ccccc2)c2ccccc2)C1=O` [Compound 114, N-(((3S,5S)-1-(2,2-diphenylethyl)-3-(3-guanidinopropyl)-2-oxo-1,4-diazepan-5-yl)methyl)isoquinoline-3-carboxamide], the IC50 was less than 1000 nM. Next, `N=C(N)NCCC[C@@H]1N[C@H](CNC(=O)c2ccccc2)CCN(CC(c2ccccc2)c2ccccc2)C1=O` [Compound 115, N-(((3S,5S)-1-(2,2-diphenylethyl)-3-(3-guanidinopropyl)-2-oxo-1,4-diazepan-5-yl)methyl)benzamide]: less than 1000 nM; `N=C(N)NCCC[C@@H]1N[C@H](CNC(=O)c2ccc3ccccc3n2)CCN(CC(c2ccccc2)c2ccccc2)C1=O` [Compound 116, N-(((3S,5S)-1-(2,2-diphenylethyl)-3-(3-guanidinopropyl)-2-oxo-1,4-diazepan-5-yl)methyl)quinoline-2-carboxamide]: less than 1000 nM.

With `NCCCC[C@@H]1N[C@H](CNC(=O)c2ccc3ccccc3c2)CCN(Cc2cccc3ccccc23)C1=O` [Compound 117, N-(((3S,5S)-3-(4-aminobutyl)-1-(naphthalen-1-ylmethyl)-2-oxo-1,4-diazepan-5-yl)methyl)-2-naphthamide], the IC50 was less than 1000 nM.

On to `NCCCC[C@@H]1N[C@H](CNC(=O)Cc2ccc3ccccc3c2)CCN(Cc2cccc3ccccc23)C1=O` [Compound 118, N-(((3S,5S)-3-(4-aminobutyl)-1-(naphthalen-1-ylmethyl)-2-oxo-1,4-diazepan-5-yl)methyl)-2-(naphthalen-2-yl)acetamide], for which the IC50 was less than 10000 nM. For `NCCCC[C@@H]1N[C@H](CNC(=O)c2ccc3ccccc3c2)CCN(Cc2ccc3ccccc3c2)C1=O` [Compound 122, N-(((3S,5S)-3-(4-aminobutyl)-1-(naphthalen-2-ylmethyl)-2-oxo-1,4-diazepan-5-yl)methyl)-2-naphthamide] the value was less than 1000 nM; for `NCCCC[C@@H]1N[C@H](CNC(=O)Cc2ccc3ccccc3c2)CCN(Cc2ccc3ccccc3c2)C1=O` [Compound 123, N-(((3S,5S)-3-(4-aminobutyl)-1-(naphthalen-2-ylmethyl)-2-oxo-1,4-diazepan-5-yl)methyl)-2-(naphthalen-2-yl)acetamide], less than 10000 nM; for `NCCCC[C@@H]1N[C@H](CNC(=O)c2cccc3ccccc23)CCN(Cc2ccc3ccccc3c2)C1=O` [Compound 124, N-(((3S,5S)-3-(4-aminobutyl)-1-(naphthalen-2-ylmethyl)-2-oxo-1,4-diazepan-5-yl)methyl)-1-naphthamide], less than 10000 nM.

`NCCCC[C@@H]1N[C@H](CNC(=O)Cc2cccc3ccccc23)CCN(Cc2ccc3ccccc3c2)C1=O` [Compound 125, N-(((3S,5S)-3-(4-aminobutyl)-1-(naphthalen-2-ylmethyl)-2-oxo-1,4-diazepan-5-yl)methyl)-2-(naphthalen-1-yl)acetamide]: the IC50 is less than 10000 nM. For `NCCCC[C@@H]1N[C@H](CNC(=O)c2ccc3ccccc3c2)CCN(CC(c2ccccc2)c2ccccc2)C1=O` [Compound 126, N-(((3S,5S)-3-(4-aminobutyl)-1-(2,2-diphenylethyl)-2-oxo-1,4-diazepan-5-yl)methyl)-2-naphthamide] the value was less than 1000 nM; for `N=C(N)NCCC[C@@H]1N[C@H](CNC(=O)C2Cc3ccccc3C2)CCN(CC(c2ccccc2)c2ccccc2)C1=O` [Compound 133, N-(((3S,5S)-1-(2,2-diphenylethyl)-3-(3-guanidinopropyl)-2-oxo-1,4-diazepan-5-yl)methyl)-2,3-dihydro-1H-indene-2-carboxamide], less than 10000 nM. `N=C(N)NCCC[C@@H]1N[C@H](CNC(=O)c2ccc(Cl)cc2Cl)CCN(CC(c2ccccc2)c2ccccc2)C1=O` [Compound 136, 2,4-dichloro-N-(((3S,5S)-1-(2,2-diphenylethyl)-3-(3-guanidinopropyl)-2-oxo-1,4-diazepan-5-yl)methyl)benzamide]: the IC50 was less than 100 nM. Regarding `N=C(N)NCCC[C@@H]1N[C@H](CNC(=O)c2cc(Cl)ccc2Cl)CCN(CC(c2ccccc2)c2ccccc2)C1=O` [Compound 137, 2,5-dichloro-N-(((3S,5S)-1-(2,2-diphenylethyl)-3-(3-guanidinopropyl)-2-oxo-1,4-diazepan-5-yl)methyl)benzamide], the IC50 was less than 1000 nM.

As to `N=C(N)NCCC[C@@H]1N[C@H](CNC(=O)C2CCCCC2)CCN(CC(c2ccccc2)c2ccccc2)C1=O` [Compound 139, N-(((3S,5S)-1-(2,2-diphenylethyl)-3-(3-guanidinopropyl)-2-oxo-1,4-diazepan-5-yl)methyl)cyclohexanecarboxamide], the half-maximal inhibitory concentration (IC50) is less than 10000 nM.

With `N=C(N)NCCC[C@@H]1N[C@H](CNC(=O)c2cc3ccccc3[nH]2)CCN(CC(c2ccccc2)c2ccccc2)C1=O` [Compound 142, N-(((3S,5S)-1-(2,2-diphenylethyl)-3-(3-guanidinopropyl)-2-oxo-1,4-diazepan-5-yl)methyl)-1H-indole-2-carboxamide], the IC50 is less than 100 nM. For the compound `N=C(N)NCCC[C@@H]1N[C@H](CNC(=O)CCc2ccccc2)CCN(CC(c2ccccc2)c2ccccc2)C1=O` [Compound 143, N-(((3S,5S)-1-(2,2-diphenylethyl)-3-(3-guanidinopropyl)-2-oxo-1,4-diazepan-5-yl)methyl)-3-phenylpropanamide], the IC50 is less than 1000 nM. For `Cc1ccc(C(=O)NC[C@@H]2CCN(CC(c3ccccc3)c3ccccc3)C(=O)[C@H](CCCNC(=N)N)N2)cc1C` [Compound 144, N-(((3S,5S)-1-(2,2-diphenylethyl)-3-(3-guanidinopropyl)-2-oxo-1,4-diazepan-5-yl)methyl)-3,4-dimethylbenzamide] the value was less than 100 nM. For `CC(C)(C)c1ccc(C(=O)NC[C@@H]2CCN(CC(c3ccccc3)c3ccccc3)C(=O)[C@H](CCCNC(=N)N)N2)cc1` [Compound 145, 4-tert-butyl-N-(((3S,5S)-1-(2,2-diphenylethyl)-3-(3-guanidinopropyl)-2-oxo-1,4-diazepan-5-yl)methyl)benzamide] the value was less than 1000 nM.

Turning to `COc1ccc(C(=O)NC[C@@H]2CCN(CC(c3ccccc3)c3ccccc3)C(=O)[C@H](CCCNC(=N)N)N2)c(OC)c1` [Compound 146, N-(((3S,5S)-1-(2,2-diphenylethyl)-3-(3-guanidinopropyl)-2-oxo-1,4-diazepan-5-yl)methyl)-2,4-dimethoxybenzamide], the IC50 was less than 10000 nM.
